IC50 data for 25 molecules are collected here from patent US9573956B2, “Compounds as dual inhibitors of phosphodiesterases and histone deacetylases” (FUNDACIÓN PARA LA INVESTIGACIÓN MÉDICA APLICADA, priority 2013, dated 2017).

pIC50: −log10 of the molar value.

Holding throughout (assay type): biochemical
For one experiment, the target named is T1, PDE5A (Homo sapiens, UniProt O76074).
T1 construct: they are full-length with N-terminal GST tag; GST (N); purchased BPS Biosciences 60050; host or cells: baculovirus infected Sf9 cells
The experiment can be described thus: PDE enzyme activity assay (HTRF cGMP), PDE5A. As to conditions: recombinant enzyme; read-out: PDE5A1 inhibition (IC50).

The target of a further experiment is T2, HDAC6 (Homo sapiens, UniProt Q9UBN7).
T2 construct: BC069243; Cat. #50006) is full-length with N-terminal GST tag; GST (N); purchased BPS Biosciences 50006; host or cells: baculovirus infected Sf9 cells
T2 sequence (Q9UBN7 1-1215): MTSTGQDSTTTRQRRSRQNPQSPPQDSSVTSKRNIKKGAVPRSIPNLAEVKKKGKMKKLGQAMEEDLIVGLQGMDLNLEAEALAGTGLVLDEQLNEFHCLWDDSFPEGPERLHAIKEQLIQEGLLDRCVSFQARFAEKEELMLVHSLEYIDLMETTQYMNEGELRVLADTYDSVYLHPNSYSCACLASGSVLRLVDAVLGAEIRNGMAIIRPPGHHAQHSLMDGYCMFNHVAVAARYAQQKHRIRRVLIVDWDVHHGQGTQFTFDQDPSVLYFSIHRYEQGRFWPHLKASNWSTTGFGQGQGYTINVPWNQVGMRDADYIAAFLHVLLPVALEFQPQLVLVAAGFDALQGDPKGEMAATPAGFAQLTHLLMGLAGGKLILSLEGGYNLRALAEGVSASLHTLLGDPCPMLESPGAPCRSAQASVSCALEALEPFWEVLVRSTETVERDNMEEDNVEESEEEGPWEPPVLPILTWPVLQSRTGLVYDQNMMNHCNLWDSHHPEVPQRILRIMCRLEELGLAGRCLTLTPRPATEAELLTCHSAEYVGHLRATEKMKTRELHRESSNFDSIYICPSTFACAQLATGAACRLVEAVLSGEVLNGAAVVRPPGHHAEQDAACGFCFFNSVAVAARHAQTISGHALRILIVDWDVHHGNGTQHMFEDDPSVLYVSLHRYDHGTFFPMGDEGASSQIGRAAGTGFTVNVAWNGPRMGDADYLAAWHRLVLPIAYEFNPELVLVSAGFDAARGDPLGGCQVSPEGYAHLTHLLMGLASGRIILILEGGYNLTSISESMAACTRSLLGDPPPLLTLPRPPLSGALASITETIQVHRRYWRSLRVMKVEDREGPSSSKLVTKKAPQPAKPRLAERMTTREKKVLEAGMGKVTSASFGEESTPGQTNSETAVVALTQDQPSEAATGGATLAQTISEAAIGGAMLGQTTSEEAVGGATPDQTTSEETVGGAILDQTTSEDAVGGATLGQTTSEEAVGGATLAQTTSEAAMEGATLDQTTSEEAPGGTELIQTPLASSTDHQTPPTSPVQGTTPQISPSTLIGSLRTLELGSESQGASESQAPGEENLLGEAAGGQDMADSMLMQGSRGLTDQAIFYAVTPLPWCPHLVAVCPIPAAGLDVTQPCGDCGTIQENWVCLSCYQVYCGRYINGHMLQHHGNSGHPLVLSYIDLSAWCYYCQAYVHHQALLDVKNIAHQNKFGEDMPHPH
The experiment can be described thus: HDAC enzyme activity assay (fluorogenic substrate), HDAC6. Particulars: recombinant enzyme; read-out: HDAC6 inhibition (IC50).

The target in the next experiment is HDAC1 (Homo sapiens, UniProt Q13547). The experiment is described as follows: HDAC enzyme activity assay (fluorogenic substrate), HDAC1. As to conditions: recombinant enzyme; read-out: HDAC1 inhibition (IC50).
Chain of HDAC1 (Q13547 whole entry): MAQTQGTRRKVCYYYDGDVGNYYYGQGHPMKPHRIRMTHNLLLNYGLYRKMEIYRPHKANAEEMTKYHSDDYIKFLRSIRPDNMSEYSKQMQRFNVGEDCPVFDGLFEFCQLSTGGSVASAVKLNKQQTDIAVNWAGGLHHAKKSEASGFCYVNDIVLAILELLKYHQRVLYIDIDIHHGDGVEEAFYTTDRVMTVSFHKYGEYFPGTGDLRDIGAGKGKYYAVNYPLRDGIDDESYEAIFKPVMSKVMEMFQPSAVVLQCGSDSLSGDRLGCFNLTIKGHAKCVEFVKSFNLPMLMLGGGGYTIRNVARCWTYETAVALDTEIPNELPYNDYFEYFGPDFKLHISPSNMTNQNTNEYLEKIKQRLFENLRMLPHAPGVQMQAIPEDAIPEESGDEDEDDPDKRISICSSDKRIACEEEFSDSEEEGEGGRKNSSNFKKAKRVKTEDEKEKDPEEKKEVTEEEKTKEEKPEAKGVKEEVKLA

With `CCCc1nn(C)c2c(=O)[nH]c(-c3cc(-c4ccc(C(=O)NO)o4)ccc3OCC)nc12` [Example 1-74], the negative logarithm of the IC50 (pIC50) at PDE5A is greater than 8.00; at HDAC6 it was 5.00 to 6.00.
`CCCc1nn(C)c2c(=O)[nH]c(-c3cc(NC4CCN(c5ccc(C(=O)NO)cc5)CC4)ccc3OCC)nc12` [Example 1-47]: the pIC50 at PDE5A is 6.00 to 8.00; at HDAC1, 5.00 to 6.00; on HDAC6 it was 5.00 to 6.00.
In the case of `CCCc1nn(C)c2c(=O)[nH]c(-c3cccc(OC4CCN(c5ncc(C(=O)NO)cn5)CC4)c3)nc12` [Example 1-14], the values for the pIC50 at PDE5A, on HDAC1 and on HDAC6 were 5.00 to 6.00, 6.00 to 8.00 and 6.00 to 8.00, respectively.
As for `CCCc1nn(C)c2c(=O)[nH]c(-c3cc(-c4ccc(C(=O)NO)s4)ccc3OCC)nc12` [Example 1-71], the results for the pIC50 on PDE5A and at HDAC6 were greater than 8.00 and 6.00 to 8.00, respectively.
As to `CCCc1nc(C)c2c(=O)[nH]c(-c3cc(S(=O)(=O)N4CCN(Cc5ccc(/C=C/C(=O)NO)cc5)CC4)ccc3OCC)nn12` [Example 2-01, (E)-3-[4-[[4-[4-Ethoxy-3-(5-methyl-4-oxo-7-propyl-3H-imidazo[5,1-f][1,2,4]triazin-2-yl)phenyl]sulfonylpiperazin-1-yl]methyl]phenyl]prop-2-enehydroxamic acid], the pIC50 was greater than 8.00 at PDE5A and 5.00 to 6.00 at HDAC1.
`O=C(CCCN1CCC(N2CC(=O)N3[C@H](c4ccc5c(c4)OCO5)c4[nH]c5ccccc5c4C[C@@H]3C2=O)CC1)NO` [Example 4-02]: the pIC50 at PDE5A was 6.00 to 8.00; at HDAC1, less than 5.00.
Regarding `CCCc1nc(C)c2c(=O)[nH]c(-c3cc(-c4ccc(C(=O)NO)cc4)ccc3OCC)nn12` [Example 2-11], the results for the pIC50 at PDE5A and at HDAC6 were greater than 8.00 and 6.00 to 8.00, respectively.
In the case of `CCCc1nn(C)c2c(=O)[nH]c(-c3cc(C(OC)c4ccc(C(=O)NO)cc4)ccc3OCC)nc12` (stereo not drawn) [Example 1-77, 4-[[4-ethoxy-3-(1-methyl-7-oxo-3-propyl-6H-pyrazolo[4,3-d]pyrimidin-5-yl)phenyl]-methoxy-methyl]benzenecarbohydroxamic acid], the pIC50 at PDE5A and at HDAC6 was 6.00 to 8.00 each time.
For `CCCc1nc(C)c2c(=O)[nH]c(-c3cc(C4CCC(C(=O)NO)CC4)ccc3OCC)nn12` (stereo not drawn) [Example 2-13, 4-[4-ethoxy-3-(5-methyl-4-oxo-7-propyl-3H-imidazo[5,1-f][1,2,4]triazin-2-yl)phenyl]cyclohexanecarbohydroxamic acid], the results for the pIC50 at PDE5A and at HDAC6 were greater than 8.00 and 6.00 to 8.00, respectively.
Regarding `O=C(NO)c1cnc(N2CCC(N3CC(=O)N4C(Cc5c([nH]c6ccccc56)C4c4ccc5c(c4)OCO5)C3=O)CC2)nc1` (racemic) [Example 4-03, N-Hydroxy-2-(4-[6-(1,3-benzodioxol-5-yl)-2,3,6,7,12,12a-hexahydropyrazino[1′,2′:1,6]pyrido[3,4-b]indole-1,4-dion-2-yl]piperidin-1-yl)pyrimidine-5-carboxamide], the pIC50 on PDE5A and on HDAC1 was 6.00 to 8.00 throughout.
On to `CCCc1nn(C)c2c(=O)[nH]c(-c3cc(CC4CCC(C(=O)NO)C4)ccc3OCC)nc12` (racemic) [Example 1-80, 3-[[4-ethoxy-3-(1-methyl-7-oxo-3-propyl-6H-pyrazolo[4,3-d]pyrimidin-5-yl)phenyl]methyl]cyclopentanecarbohydroxamic acid], for which the pIC50 at PDE5A and on HDAC6 was 6.00 to 8.00 each time.
As to `CCCc1nn(C)c2c(=O)[nH]c(-c3cc(-c4ccc(C(=O)NO)nc4)ccc3OCC)nc12` [Example 1-73], the values for the pIC50 at PDE5A and on HDAC6 were greater than 8.00 and 6.00 to 8.00, respectively.
For `CCCc1nc(C)c2c(=O)[nH]c(-c3cc(C4CCC(C(=O)NO)CC4)ccc3OCC)nn12` (racemic) [Example 2-12, 4-[4-ethoxy-3-(5-methyl-4-oxo-7-propyl-3H-imidazo[5,1-f][1,2,4]triazin-2-yl)phenyl]cyclohexanecarbohydroxamic acid], the results for the pIC50 at PDE5A and on HDAC6 were greater than 8.00 and 5.00 to 6.00, respectively.
On the same counts, the results for `CCCc1nn(C)c2c(=O)[nH]c(-c3cc(C(O)c4ccc(C(=O)NO)cc4)ccc3OCC)nc12` (stereo not drawn) [Example 1-78, 4-[[4-ethoxy-3-(1-methyl-7-oxo-3-propyl-6H-pyrazolo[4,3-d]pyrimidin-5-yl)phenyl]-hydroxy-methyl]benzenecarbohydroxamic acid] are greater than 8.00 and 6.00 to 8.00.
On the same counts, the results for `CCCc1nc(C)c2c(=O)[nH]c(-c3cc(Cc4ccc(C(=O)NO)s4)ccc3OCC)nn12` [Example 2-10] are greater than 8.00 and 6.00 to 8.00.
The like results for `CCCc1nn(C)c2c(=O)[nH]c(-c3cc(CC4CCC(C(=O)NO)CC4)ccc3OCC)nc12` (racemic) [Example 1-76, 4-[[4-ethoxy-3-(1-methyl-7-oxo-3-propyl-6H-pyrazolo[4,3-d]pyrimidin-5-yl)phenyl]methyl]cyclohexanecarbohydroxamic acid] were, in that order, 6.00 to 8.00 and 6.00 to 8.00.
With `CCCc1nn(C)c2c(=O)[nH]c(-c3cc(C4CC(C(=O)NO)C4)ccc3OCC)nc12` (racemic) [Example 1-82, 3-[4-ethoxy-3-(1-methyl-7-oxo-3-propyl-6H-pyrazolo[4,3-d]pyrimidin-5-yl)phenyl]cyclobutanecarbohydroxamic acid], the pIC50 on PDE5A and at HDAC6 was 6.00 to 8.00 in each case.
Regarding `CCCc1nn(C)c2c(=O)[nH]c(-c3cc(S(=O)(=O)N4CCN(C)CC4)ccc3OCC)nc12` [Sildenafil, reference compound], the pIC50 at HDAC1 is less than 5.00.
`CCCc1nn(C)c2c(=O)[nH]c(-c3cc(OCC4CCN(c5ncc(C(=O)NO)cn5)CC4)ccc3OCC)nc12` [Example 1-11, N-Hydroxy-2-(4-[3-(6,7-dihydro-1-methyl-7-oxo-3-propyl-1H-pyrazolo[4,3-d]pyrimidin-5-yl)-4-ethoxyphenoxymethyl]-piperidin-1-yl)pyrimidine-5-carboxamide]: the pIC50 at PDE5A was 5.00 to 6.00; at HDAC1 it was 6.00 to 8.00.
On the same counts, the results for `O=C(/C=C/c1ccc(CN2CCC(N3CC(=O)N4[C@H](c5ccc6c(c5)OCO6)c5[nH]c6ccccc6c5C[C@@H]4C3=O)CC2)cc1)NO` [Example 4-04] are 6.00 to 8.00 and 6.00 to 8.00.
The like results for `O=C(/C=C/c1ccc(N2CC(=O)N3[C@H](c4ccc5c(c4)OCO5)c4[nH]c5ccccc5c4C[C@@H]3C2=O)cc1)NO` [Example 4-01, (E)-N-Hydroxy-4-[6-(1,3-benzodioxol-5-yl)-2,3,6,7,12,12a-hexahydropyrazino[1′,2′:1,6]pyrido[3,4-b]indole-1,4-dion-2-yl]phenylprop-2-enamide] were, in that order, 6.00 to 8.00 and less than 5.00.
With `CCCc1nn(C)c2c(=O)[nH]c(-c3cc(CC4CCC(C(=O)NO)C4)ccc3OCC)nc12` (stereo not drawn) [Example 1-83, 3-[[4-ethoxy-3-(1-methyl-7-oxo-3-propyl-6H-pyrazolo[4,3-d]pyrimidin-5-yl)phenyl]methyl]cyclopentanecarbohydroxamic acid], the pIC50 on PDE5A and at HDAC6 was 6.00 to 8.00 each time.
With `CCCc1nn(C)c2c(=O)[nH]c(-c3cc(C(=O)c4ccc(C(=O)NO)s4)ccc3OCC)nc12` [Example 1-79, 5-[4-ethoxy-3-(1-methyl-7-oxo-3-propyl-6H-pyrazolo[4,3-d]pyrimidin-5-yl)benzoyl]thiophene-2-carbohydroxamic acid], the pIC50 on PDE5A is greater than 8.00; on HDAC6 it was 6.00 to 8.00.
The like results for `CCCc1nn(C)c2c(=O)[nH]c(-c3cc(C4CCC(C(=O)NO)CC4)ccc3OCC)nc12` (racemic) [Example 1-75, 4-[4-ethoxy-3-(1-methyl-7-oxo-3-propyl-6H-pyrazolo[4,3-d]pyrimidin-5-yl)phenyl]cyclohexanecarbohydroxamic acid] were, in that order, 6.00 to 8.00 and 5.00 to 6.00.
The like results for `CCCc1nn(C)c2c(=O)[nH]c(-c3cc(-c4ccc(C(=O)NO)cn4)ccc3OCC)nc12` [Example 1-72] were, in that order, greater than 8.00 and 6.00 to 8.00.

One may read the pIC50 as −log10 of the IC50, conventionally taken in molar units.
